Reference: ChEMBL document CHEMBL1148617, “Design, synthesis, and structure-activity relationships of 1-,3-,8-, and 9-substituted-9-deazaxanthines at the human A2B adenosine receptor” (J Med Chem, 2006)

Assays:
[1] = biological target: T1, Adenosine receptor A2b (Homo sapiens) (UniProt P29275); assay: Displacement of [3H]DPCPX from recombinant human adenosine A2B receptor expressed in HEK293 cells at 0.1 uM; type: cell-based
T1 sequence (whole entry): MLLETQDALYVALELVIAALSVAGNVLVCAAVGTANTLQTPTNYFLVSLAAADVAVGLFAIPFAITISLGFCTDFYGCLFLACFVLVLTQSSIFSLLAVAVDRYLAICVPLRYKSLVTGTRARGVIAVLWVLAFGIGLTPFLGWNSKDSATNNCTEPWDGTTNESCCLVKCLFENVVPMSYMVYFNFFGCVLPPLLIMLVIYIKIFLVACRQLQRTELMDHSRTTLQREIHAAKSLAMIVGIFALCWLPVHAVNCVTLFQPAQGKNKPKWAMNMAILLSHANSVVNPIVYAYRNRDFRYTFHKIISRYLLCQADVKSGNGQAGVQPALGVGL

[2] = biological target: T2, Adenosine receptor A2a (Homo sapiens, UniProt P29274)
T2 sequence (P29274 whole entry): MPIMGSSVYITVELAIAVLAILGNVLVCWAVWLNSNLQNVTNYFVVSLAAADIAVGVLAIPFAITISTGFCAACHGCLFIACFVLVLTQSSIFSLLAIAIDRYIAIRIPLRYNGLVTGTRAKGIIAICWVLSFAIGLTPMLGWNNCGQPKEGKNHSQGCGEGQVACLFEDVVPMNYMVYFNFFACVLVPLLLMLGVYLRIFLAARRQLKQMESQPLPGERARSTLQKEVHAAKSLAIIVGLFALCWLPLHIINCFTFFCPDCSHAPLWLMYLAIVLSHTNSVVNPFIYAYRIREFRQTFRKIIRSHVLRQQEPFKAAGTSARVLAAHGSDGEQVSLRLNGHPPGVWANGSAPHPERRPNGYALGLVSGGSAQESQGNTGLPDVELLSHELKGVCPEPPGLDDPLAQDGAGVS
Description: Binding affinity to recombinant human adenosine A2A receptor

[3] = biological target: T3, Adenosine receptor A2b (Homo sapiens, UniProt P29275)
T3 sequence (P29275 whole entry): T1 sequence (whole entry)
Description: Binding affinity to recombinant human adenosine A2B receptor

[4] = biological target: T1, Adenosine receptor A2b (Homo sapiens); assay: Displacement of [3H]DPCPX from recombinant human adenosine A2B receptor expressed in HEK293 cells at 0.01 uM
[5] = biological target: T2, Adenosine receptor A2a; assay: Displacement of [3H]ZM-241385 from recombinant human adenosine A2A receptor expressed in HeLa cells at 0.1 uM
[6] = biological target: T4, Adenosine receptor A1 (Homo sapiens, UniProt P30542)
T4 sequence (P30542 whole entry): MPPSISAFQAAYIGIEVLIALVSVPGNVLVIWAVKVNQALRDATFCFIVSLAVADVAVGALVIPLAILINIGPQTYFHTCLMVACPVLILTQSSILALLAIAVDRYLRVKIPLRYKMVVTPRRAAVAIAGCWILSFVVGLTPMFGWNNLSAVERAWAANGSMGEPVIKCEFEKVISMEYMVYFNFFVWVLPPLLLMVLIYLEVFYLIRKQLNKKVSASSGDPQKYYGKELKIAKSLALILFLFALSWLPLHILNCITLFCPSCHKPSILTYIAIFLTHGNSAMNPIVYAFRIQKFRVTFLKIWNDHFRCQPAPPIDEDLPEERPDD
Description: Binding affinity to recombinant human adenosine A1 receptor

Row | Structure (SMILES) | inhibition [1] [%] | Ki [2] [nM] | Ki [3] [nM] | inhibition [4] [%] | inhibition [5] [%] | Ki [6] [nM]
1 | CCCn1c(=O)c2[nH]c(-c3ccc(OCC(=O)Nc4ccc(F)cc4)cc3)cc2n(C)c1=O | 94 | 66.1 | 5.62 | 57 | 47 | 
2 | Cn1c(=O)c2[nH]c(-c3ccc(OCC(=O)NCc4ccc(Cl)cc4)cc3)cc2n(C)c1=O | 93 | 20.4 | 4.9 | 61 | 75 | 
3 | CCN(Cc1ccccc1)C(=O)COc1ccc(-c2cc3c([nH]2)c(=O)n(C)c(=O)n3C)cc1 | 59 | 891 | 42.7 | 15 | 17 | 
4 | CCCn1c(=O)c2[nH]c(-c3ccc(OCC(=O)Nc4ccc(NC(C)=O)cc4)cc3)cc2n(CCC)c1=O | 70 | 63.1 | 13.8 | 23 | 40 | 
5 | CCCn1c(=O)c2[nH]c(-c3ccc(OCC(=O)Nc4ccc(Cl)cc4)cc3)c(Cl)c2n(CCC)c1=O | 80 | 89.1 | 22.9 | 17 | 28 | 
6 | Cn1c(=O)c2[nH]c(-c3cccc(OCC(=O)Nc4ccc(Br)cc4)c3)cc2n(C)c1=O | 73 | 67.6 | 44.7 | 15 | 45 | 
7 | CCCn1c(=O)n(C)c(=O)c2[nH]c(-c3ccc(OCC(=O)Nc4ccc(F)cc4)cc3)cc21 | 93 | 112 | 9.55 | 43 | 24 | 
8 | CCCn1c(=O)c2[nH]c(-c3ccc(OCC(=O)Nc4ccc(F)cc4)cc3)nc2n(CCC)c1=O |  |  |  |  |  | 18.2
9 | CCCn1c(=O)c2[nH]c(-c3ccc(OCC(=O)Nc4ccc(C(C)(C)C)cc4)cc3)cc2n(CCC)c1=O | 94 | 79.4 | 7.94 | 51 | 47 | 
10 | CCCn1c(=O)c2[nH]c(-c3ccc(OC(C)(C)C(=O)Nc4ccccc4)cc3)cc2n(CCC)c1=O | 93 | 53.7 | 7.94 | 51 | 57 | 
11 | CCCn1c(=O)c2[nH]c(-c3ccc(OC(C)C(=O)Nc4ccc(OC)cc4)cc3)cc2n(CCC)c1=O (stereo unspecified) | 92 | 38.9 | 5.13 | 55 | 57 | 
12 | CCCn1c(=O)c2[nH]c(-c3ccc(OCC(=O)Nc4ccc(OCc5ccccc5)cc4)cc3)cc2n(CCC)c1=O | 76 | 18.6 | 8.91 | 49 | 60 | 
13 | COc1cc(-c2cc3c([nH]2)c(=O)n(C)c(=O)n3C)ccc1OCC(=O)Nc1ccc(C#N)cc1 | 28 | 575 | 214 | 10 | 5 | 
14 | CCCn1c(=O)c2[nH]c(-c3ccc(OCC(=O)Nc4ccccc4)cc3)c(Br)c2n(CCC)c1=O | 73 | 42.7 | 24.5 | 16 | 54 | 
15 | CCCn1c(=O)c2[nH]c(-c3ccc(OC(CC)C(=O)Nc4ccc(Br)cc4)cc3)cc2n(CCC)c1=O (stereo unspecified) | 94 | 31.6 | 6.03 | 55 | 82 | 
16 | CCCn1c(=O)c2[nH]c(-c3ccc(OCC(=O)Nc4ccccc4)cc3)cc2n(CCC)c1=O | 92 | 224 | 9.33 | 47 | 6 | 
17 | COc1cc(-c2cc3c([nH]2)c(=O)n(C)c(=O)n3C)ccc1OCC(=O)NCc1ccc(Cl)cc1 | 43 | 158 | 186 | 5 | 23 | 
18 | CCCn1c(=O)c2[nH]c(-c3ccc(OCC(=O)Nc4ccc(Cl)cc4)cc3)cc2n(CCC)c1=O | 95 | 31.6 | 3.16 | 58 | 61 | 
19 | CCCn1c(=O)c2[nH]c(-c3ccc(OCC(=O)Nc4ccc(CC(=O)OCC)cc4)cc3)cc2n(CCC)c1=O | 58 | 240 | 60.3 | 32 | 10 | 
20 | CCCn1c(=O)c2[nH]c(-c3ccc(OCC(=O)NCc4ccc(F)cc4)cc3)c(Cl)c2n(CCC)c1=O | 25 | 49 | 174 | 8 | 44 | 

Row | Structure (SMILES) | inhibition [1] [%] | Ki [2] [nM] | Ki [3] [nM] | inhibition [4] [%] | inhibition [5] [%] | Ki [6] [nM]
21 | COCCCn1c(=O)n(C)c(=O)c2[nH]c(-c3ccc(OCC(=O)Nc4ccccc4)cc3)cc21 | 80 | 120 | 13.8 | 27 | 29 | 
22 | COc1cc(OCC(=O)Nc2ccccc2)ccc1-c1cc2c([nH]1)c(=O)n(C)c(=O)n2C | 55 | 1050 | 69.2 | 12 | 13 | 
23 | CCCn1c(=O)c2[nH]c(-c3ccc(OCC(=O)Nc4ccccc4)cc3)cc2n(C)c1=O | 91 | 170 | 12.3 | 38 | 18 | 
24 | CCCn1c(=O)c2[nH]c(-c3ccc(OCC(=O)Nc4ccccn4)cc3)cc2n(CCC)c1=O | 83 | 309 | 26.9 | 33 | 34 | 
25 | CCCn1c(=O)c2[nH]c(-c3ccc(OCC(=O)Nc4ccccc4Cl)cc3)c(Cl)c2n(CCC)c1=O | 44 | 263 | 83.2 | 5 | 23 | 
26 | CCCn1c(=O)c2[nH]c(-c3ccc(OCC(=O)Nc4ccc(CS(=O)(=O)N5CCCC5)cc4)cc3)cc2n(CCC)c1=O | 70 | 52.5 | 7.76 | 58 | 31 | 
27 | CCCn1c(=O)c2[nH]c(-c3ccc(OC(C)C(=O)NCc4ccc(Cl)cc4)cc3)cc2n(CCC)c1=O (stereo unspecified) | 94 | 46.8 | 4.07 | 55 | 57 | 
28 | CC(Oc1ccc(-c2cc3c([nH]2)c(=O)n(C)c(=O)n3C)cc1)C(=O)Nc1ccc(Br)cc1 (stereo unspecified) | 93 | 26.9 | 1.55 | 89 | 77 | 
29 | CCCn1c(=O)c2[nH]c(-c3ccc(OCC(=O)Nc4ccccc4O)cc3)cc2n(CCC)c1=O | 74 | 32.4 | 19.1 | 56 | 82 | 
30 | CCCn1c(=O)c2[nH]c(-c3ccc(OCC(=O)Nc4ccc([N+](C)(C)C)cc4)cc3)cc2n(CCC)c1=O | 52 | 708 | 91.2 | 4 | 8 | 
31 | CCCn1c(=O)c2[nH]c(-c3ccc(OCC(=O)Nc4ccc(F)cc4)cc3)cc2n(CCC)c1=O | 96 | 12 | 3.31 | 70 | 62 | 
32 | CCCn1c(=O)c2[nH]c(-c3ccc(OCC(=O)c4c(NC(=O)O)n(C)c(=O)n(C)c4=O)cc3)cc2n(CCC)c1=O | 59 | 79.4 | 100 | 24 | 61 | 
33 | COc1cc(OCC(=O)Nc2ccc(F)cc2)ccc1-c1cc2c([nH]1)c(=O)n(C)c(=O)n2C | 63 | 95.5 | 25.1 | 23 | 31 | 
34 | CCCn1c(=O)c2[nH]c(-c3ccc(OCC(=O)Nc4ccccc4)cc3)c(Cl)c2n(CCC)c1=O | 57 | 74.1 | 37.2 | 11 | 37 | 
35 | CC(NC(=O)COc1ccc(-c2cc3c([nH]2)c(=O)n(C)c(=O)n3C)cc1)c1ccccc1 (stereo unspecified) | 63 | 245 | 27.5 | 20 | 13 | 
36 | CCCn1c(=O)c2[nH]c(-c3ccc(OC(C)C(=O)Nc4ccc(F)cc4)cc3)cc2n(CCC)c1=O (stereo unspecified) | 88 | 58.9 | 3.24 | 62 | 51 | 
37 | CCCn1c(=O)c2[nH]c(-c3ccc(OCC(=O)Nc4ccc(Br)cc4)cc3)cc2n(CCC)c1=O | 97 | 30.9 | 2.19 | 66 | 54 | 
38 | CCCn1c(=O)c2[nH]c(-c3ccc(OCC(=O)Nc4ccc(OC)nc4)cc3)cc2n(C)c1=O | 99 | 132 | 3.16 | 57 | 30 | 
39 | CCCn1c(=O)c2[nH]c(-c3ccc(OCC(=O)Nc4ccc(I)cc4)cc3)cc2n(CCC)c1=O | 80 | 158 | 19.5 | 30 | 57 | 
